ChEMBL document CHEMBL1201862, “PubChem BioAssay data set” (2004)
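Test compounds were applied to cells in 96-well plates for 48 hours at 5 doses. At the GI50, growth is halved.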 Activity calls are given as the source filed them. No stated cut-off is given here; in the data, active = GI50 up to about 1.1 µM and inactive = higher.

Key:
Assay in all cases: NCI tumour cell line growth inhibition, 48 h
786-0 = system: 786-0
A498 = system: A498
A549 = system: A549
ACHN = system: ACHN
BT-549 = system: BT-549
CAKI-1 = system: CAKI-1
CCRF-CEM = system: CCRF-CEM
COLO 205 = system: COLO 205
DU-145 = system: DU-145
EKVX = system: EKVX
HCC 2998 = system: HCC 2998
HCT-116 = system: HCT-116
HCT-15 = system: HCT-15
HL-60 = system: HL-60
HOP-62 = system: HOP-62
HOP-92 = system: HOP-92
HT-29 = system: HT-29
IGROV-1 = system: IGROV-1
K562 = system: K562
KM12 = system: KM12
LOX IMVI = system: LOX IMVI
M14 = system: M14
MCF7 = system: MCF7
MDA-MB-231 = system: MDA-MB-231
MDA-MB-435 = system: MDA-MB-435
MDA-N = system: MDA-N
MOLT-4 = system: MOLT-4
Malme-3M = system: Malme-3M
NCI-H226 = system: NCI-H226
NCI-H23 = system: NCI-H23
NCI-H460 = system: NCI-H460
NCI-H522 = system: NCI-H522
NCI/ADR-RES = system: NCI/ADR-RES
OVCAR-3 = system: OVCAR-3
OVCAR-4 = system: OVCAR-4
OVCAR-5 = system: OVCAR-5
OVCAR-8 = system: OVCAR-8
PC-3 = system: PC-3
RPMI-8226 = system: RPMI-8226
RXF 393 = system: RXF 393
SF-268 = system: SF-268
SF-295 = system: SF-295
SF-539 = system: SF-539
SK-MEL-28 = system: SK-MEL-28
SK-MEL-2 = system: SK-MEL-2
SK-MEL-5 = system: SK-MEL-5
SK-OV-3 = system: SK-OV-3
SN12C = system: SN12C
SNB-19 = system: SNB-19
SNB-75 = system: SNB-75
SR = system: SR
SW-620 = system: SW-620
T47D = system: T47D
TK-10 = system: TK-10
U-251 = system: U-251
UACC-257 = system: UACC-257
UACC-62 = system: UACC-62
UO-31 = system: UO-31

O=C1CCN2c3ccccc3[C@H]3Cc4cccc(c4[C@@H]2C3)CCO1
GI50 (786-0): 41.8 µM (inactive)
GI50 (A498): 56.5 µM (inactive)
GI50 (A549): 33.9 µM (inactive)
GI50 (ACHN): 44 µM (inactive)
GI50 (BT-549): 57.8 µM (inactive)
GI50 (CAKI-1): 41.9 µM (inactive)
GI50 (CCRF-CEM): 28.8 µM (inactive)
GI50 (COLO 205): 33.5 µM (inactive)
GI50 (DU-145): 68.4 µM (inactive)
GI50 (EKVX): 38.5 µM (inactive)
GI50 (HCC 2998): > 100 µM (inactive)
GI50 (HCT-116): 21.6 µM (inactive)
GI50 (HCT-15): 26.9 µM
GI50 (HL-60): 25.5 µM (inactive)
GI50 (HOP-62): 56.2 µM (inactive)
GI50 (HOP-92): 31 µM (inactive)
GI50 (HT-29): 36.6 µM (inactive)
GI50 (IGROV-1): 22 µM (inactive)
GI50 (K562): 21.8 µM (inactive)
GI50 (KM12): 34.9 µM (inactive)
GI50 (LOX IMVI): 34.6 µM (inactive)
GI50 (M14): 19.4 µM (inactive)
GI50 (MCF7): 41.5 µM (inactive)
GI50 (MDA-MB-231): 83 µM (inactive)
GI50 (MDA-MB-435): 40.4 µM (inactive)
GI50 (MDA-N): 26.2 µM (inactive)
GI50 (MOLT-4): 20.3 µM (inactive)
GI50 (Malme-3M): 25.2 µM (inactive)
GI50 (NCI-H226): 32.9 µM (inactive)
GI50 (NCI-H23): 35.3 µM (inactive)
GI50 (NCI-H460): > 100 µM (inactive)
GI50 (NCI-H522): 28.4 µM (inactive)
GI50 (NCI/ADR-RES): 23.6 µM (inactive)
GI50 (OVCAR-3): 26.5 µM (inactive)
GI50 (OVCAR-4): 57.1 µM (inactive)
GI50 (OVCAR-5): > 100 µM (inactive)
GI50 (OVCAR-8): 31.7 µM (inactive)
GI50 (PC-3): 32 µM (inactive)
GI50 (RPMI-8226): 31 µM (inactive)
GI50 (RXF 393): 47.4 µM (inactive)
GI50 (SF-268): 72.4 µM (inactive)
GI50 (SF-295): 32.4 µM (inactive)
GI50 (SF-539): 79.3 µM (inactive)
GI50 (SK-MEL-28): 56.4 µM (inactive)
GI50 (SK-MEL-2): 38 µM (inactive)
GI50 (SK-MEL-5): 22.1 µM (inactive)
GI50 (SK-OV-3): 51.2 µM (inactive)
GI50 (SN12C): 16.3 µM (inactive)
GI50 (SNB-19): 86.9 µM (inactive)
GI50 (SNB-75): 27.4 µM (inactive)
GI50 (SR): 26.1 µM (inactive)
GI50 (SW-620): 35.3 µM (inactive)
GI50 (T47D): 36.7 µM (inactive)
GI50 (TK-10): 65.6 µM (inactive)
GI50 (U-251): 40.5 µM (inactive)
GI50 (UACC-257): 29.4 µM (inactive)
GI50 (UACC-62): 43.5 µM (inactive)
GI50 (UO-31): 22.9 µM (inactive)
